Data from patent US20240285543A1, “NANOPARTICLE-MEDIATED ENHANCEMENT OF IMMUNOTHERAPY TO PROMOTE FERROPTOSIS-INDUCED CYTOTOXICITY AND ANTITUMOR IMMUNE RESPONSES” (Memorial Sloan-Kettering Cancer Center, priority 2021, published 2024).
Values belong to the molecule of their own block, whether it stands above or below them.

Assays:
PSMA [1] = biological target: T1, PSMA (Homo sapiens, UniProt Q04609)
From the text: Table printed on a drawing sheet, FIG. 25
(§1) Head of the field: IC50 (M)
The patent's description of the figure: FIG. 25 show PSMA-targeting peptide-linkers, according to embodiments of the present disclosure.
Where the first naming reader finds the target: head: PSMA-Targeting Peptide-Linker Sequences
Target sequence in this assay (Q04609 whole entry, looked up): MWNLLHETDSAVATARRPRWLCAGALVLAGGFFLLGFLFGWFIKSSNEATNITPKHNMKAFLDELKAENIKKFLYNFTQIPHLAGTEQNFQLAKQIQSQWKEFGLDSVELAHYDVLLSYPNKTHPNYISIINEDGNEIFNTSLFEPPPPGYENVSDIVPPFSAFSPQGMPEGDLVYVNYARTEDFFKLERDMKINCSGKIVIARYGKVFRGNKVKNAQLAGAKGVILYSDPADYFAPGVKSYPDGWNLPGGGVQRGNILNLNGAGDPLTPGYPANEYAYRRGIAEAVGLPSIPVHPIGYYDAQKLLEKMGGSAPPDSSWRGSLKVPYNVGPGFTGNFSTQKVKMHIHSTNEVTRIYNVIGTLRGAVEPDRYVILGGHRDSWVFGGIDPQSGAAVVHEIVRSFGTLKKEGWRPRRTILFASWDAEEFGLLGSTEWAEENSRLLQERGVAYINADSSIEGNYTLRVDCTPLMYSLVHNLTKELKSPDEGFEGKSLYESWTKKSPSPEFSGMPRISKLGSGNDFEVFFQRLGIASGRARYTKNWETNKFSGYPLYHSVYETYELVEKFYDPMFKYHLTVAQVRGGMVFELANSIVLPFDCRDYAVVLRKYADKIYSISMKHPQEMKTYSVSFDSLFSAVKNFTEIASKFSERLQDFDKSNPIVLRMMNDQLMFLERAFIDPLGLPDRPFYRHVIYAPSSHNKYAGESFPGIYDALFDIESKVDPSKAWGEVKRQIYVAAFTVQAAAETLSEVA

PSMA [2] = biological target: T1, PSMA; set-up: compiled for 40 patients treated with ^225Ac-PSMA-617; host or cells: patients (mCRPC); conditions: cited from earlier work; for clinical response: mCRPC patients
Target sequence in this assay (Q04609 whole entry): as the sequence (Q04609 whole entry, looked up) above

B16-F10 tumors = test: B16-F10 melanoma tumor growth inhibition and TME analysis; format: in vivo, mice
From the text: FIGS. 15A-15C show C′ dots inhibit melanoma tumor growth via ferroptotic induction and pro-inflammatory responses. […] Data represents analyses of n=4 mice per group, mean±s.e.m. *p<0.05 (non-parametric 2-way ANOVA).
Data represent mean±s.e.m. **** saline-PD1: P=0.0001; **** saline-alpha-MSH: P=0.0001; **** saline-(anti-PD1+alpha-MSH): P<0.0001; **PD1-(anti-PD1+alpha-MSH): P=0.0017; **alpha-MSH-(anti-PD1+alpha-MSH): P=0.0017.
The present example describes a statistically significant and marked drop in tumor volume (red curve) to nearly 65% of control values (blue curve) following a multiple, high-dose (60 μM) regimen of i.v.-injected αMSH-PEG-C′ dots in B16-F10 mice when tumors reached […]. […] To evaluate the extent of immune cell infiltration, IHC was performed to assess for Iba1, CD3, CD4, and CD8 expression, with results graphically depicted in FIG. 15C. […]
Particles have been either injected as multiple doses (n=3) alone or concomitantly with either the first three doses (“early”, on days 7, 10, and 13) or the final three doses (“late”, on days 16, 19, and 22) of anti-PD-1 (250 μg/mouse), anti-CTLA4 (100 μg/mouse), or anti-PD-1+anti-CTLA4 antibody regimens (see FIG. 12). […] It can then be determined whether the order of administration of these agents is important in terms of modulating overall treatment responses.

MC1-R = test: IC50 (M)
From the text: Table printed on a drawing sheet, FIG. 13F
as §1
The patent's description of the figure: FIGS. 13A-13F show characterization of a lead alpha-MSH peptide-linker conjugate. Structural schematics of representative alpha-MSH peptides. […] FIG. 13B, FIG. 13C each show second generation peptides with reduced hydrophobicity containing PEG2 and one Ahx spacer: (FIG. 13B) PEG2-Ahx-d-Lys-alpha-MSH (yellow closed circle in FIG. 13E); and (FIG. 13C) PEG2-d-Lys-Ahx-alpha-MSH (green triangle in FIG. 13E). […] FIG. 13E and FIG. 13F show IC50 determination of MC1-R targeting Re-cyclized and lactam-cyclized peptides.
First copying reader's note: IC50 values belong to the competitive binding curves of FIG. 13E on the same sheet.
Where the first naming reader finds the target: head: MC1-R-Targeting Peptide Linker Sequences

Molecule: O=C(O)CC[C@H](NC(=O)N[C@@H](CCCCNC(=O)[C@H](Cc1ccc2ccccc2c1)NC(=O)[C@H]1CC[C@H](CNC(=O)CN2CCN(CC(=O)O)CCN(CC(=O)O)CCN(CC(=O)O)CC2)CC1)C(=O)O)C(=O)O [PSMA-617, hooc-Lys(-2Nal-Tran-DOTA)-'CO'-Glu-cooh]
- IC50 (PSMA [1]): 21 nM

Molecule: CC(=O)N[C@@H](CS)C(=O)NCCCCCC(=O)NCCCCCC(=O)N[C@H](CCCCN)C(=O)NCCCCCC(=O)NCCCC[C@H](NC(=O)N[C@@H](CCC(=O)O)C(=O)O)C(=O)O [Prototype PSMAi, hooc-Lys(-Ahx-dLys(-nh2)-(Ahx)2-Cys-Ac)-'CO'-Glu-cooh]
- IC50 (PSMA [1]): 4.5 nM

Molecule: O=C([O-])CN1CCN(CC(=O)[O-])CCN(CC(=O)NCC2CCC(C(=O)N[C@@H](Cc3ccc4ccccc4c3)C(=O)NCCCC[C@H](NC(=O)N[C@@H](CCC(=O)O)C(=O)O)C(=O)O)CC2)CCN(CC(=O)[O-])CC1.[177Lu+3] (stereo partly shown) [^177Lu-PSMA-617]
- clinical response (PSMA [2]): high response rate

Molecule: O=C([O-])CC[C@H](NC(=O)N[C@@H](CCCCNC(=O)[C@H](Cc1ccc2ccccc2c1)NC(=O)[C@H]1CC[C@H](CNC(=O)CN2CCN(CC(=O)[O-])CCN(CC(=O)[O-])CCN(CC(=O)[O-])CC2)CC1)C(=O)[O-])C(=O)[O-].[225Ac].[H+].[H+].[H+] [^225Ac-PSMA-617]
- salivary gland toxicity (PSMA [2]; 40 patients): frequent occurrence of severe xerostomia
- patients who discontinued treatment due to xerostomia (PSMA [2]; clinical trial): ~23%
- clinical response (PSMA [2]): remarkable results

Molecule: Clc1cccc(CN=C2Nc3ccccc3NC23CCNCC3)c1 [liproxstatin-1]
- H&E staining of tumor tissue (B16-F10 tumors; after final dose): reversed
- effect of i.p. liproxstatin-1 on particle-induced tumor volume drop (B16-F10 tumors; mouse, in vivo, ip): substantially attenuated

- IC50 (MC1-R): 7 nM
Molecule: Ac-Cys-(Ahx)2-dLys-Re(CCMSH) [Prototype αMSH]

- IC50 (MC1-R): 71 nM
Molecule: Ac-Cys-PEG2-dLys-Ahx-Nle-Re(CCMSH) [2nd gen αMSH (#2)]
